Drawing on patent US9056865B2, “Pyridine-2-derivatives as smoothened receptor modulators” (Pfizer Inc., priority 2010, dated 2015), this text covers IC50 and inhibition for 27 compounds.

One assay concerns the target human Smo (Homo sapiens (Human), UniProt Q99835). In words: Smo radioligand competition binding assay. Conditions: for inhibition at 0.05 µM: 0.05 μM test compound, read-out: Smo % inh. @ 0.05 μM. In short, it runs like this: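 Membranes from HEK293 cells expressing surface human Smo 181-781 (40 μg protein/well) incubated 2 h at room temperature with test compound and tritiated Smo antagonist (3 nM), pH 7.5 Tris buffer; filtration and scintillation counting. Non-specific binding defined with 30 μM cold antagonist; IC50 from four-parameter sigmoidal fit.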
For orientation: Loss of bound radioactivity is the signal in a displacement assay; it reports binding, not function.

Another assay has as its system Gli-Luc/MEF cells. In words: Gli-Luc/MEF assay. The format is cell-based, mouse. Conditions: Mus musculus, MEF; Shh-stimulated luciferase, 48 hours. In short, it runs like this: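 Mouse embryonic fibroblasts from Gli-Luc transgenic mice (luciferase under Gli response element) dosed with compounds (final […], 3-fold series), then stimulated with recombinant mouse Shh at final 2 μg/mL. After 48 h at 37 °C, luminescence read by Bright-Glo; IC50 from inhibition of Shh-induced signal.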

human Smo, sequence (Q99835 181-787): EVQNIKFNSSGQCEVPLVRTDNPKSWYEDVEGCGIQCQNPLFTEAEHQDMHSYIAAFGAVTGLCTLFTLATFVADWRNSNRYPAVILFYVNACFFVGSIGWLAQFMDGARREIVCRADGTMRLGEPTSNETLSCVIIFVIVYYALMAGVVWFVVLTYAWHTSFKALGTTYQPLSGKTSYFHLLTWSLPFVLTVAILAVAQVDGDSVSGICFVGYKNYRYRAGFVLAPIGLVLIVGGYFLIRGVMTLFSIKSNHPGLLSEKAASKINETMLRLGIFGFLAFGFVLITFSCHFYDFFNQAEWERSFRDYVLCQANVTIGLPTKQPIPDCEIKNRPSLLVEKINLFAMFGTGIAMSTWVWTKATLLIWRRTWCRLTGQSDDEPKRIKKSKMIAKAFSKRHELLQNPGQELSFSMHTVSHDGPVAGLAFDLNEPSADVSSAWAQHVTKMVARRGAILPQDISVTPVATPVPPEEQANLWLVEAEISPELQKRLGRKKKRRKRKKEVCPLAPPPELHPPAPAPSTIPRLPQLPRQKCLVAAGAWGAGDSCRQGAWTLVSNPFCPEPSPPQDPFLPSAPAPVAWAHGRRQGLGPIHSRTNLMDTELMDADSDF

In general, IC50 refers to the concentration that gives 50% inhibition. Turning to `CC(=O)N1CCN(c2cc(-c3ncccc3C)c(Cl)cn2)CC1` [Example A-23, 2′-(4-acetylpiperazin-1-yl)-5′-chloro-3-methyl-2,4′-bipyridine], at human Smo, the half-maximal inhibitory concentration (IC50) was found to be 417 nM and the inhibition at 0.05 µM is 59.5%. For the same compound, the half-maximal inhibitory concentration (IC50) in the assay on Gli-Luc/MEF cells was 194 nM.
In the same order, the values of `CCS(=O)(=O)NC1CCN(c2cc(-c3ncc(C)cc3C)c(Cl)cn2)CC1` [Example A-121, N-[1-(5′-chloro-3,5-dimethyl-2,4′-bipyridin-2′-yl)piperidin-4-yl]ethanesulfonamide] are 11.6 nM, 101% and 4.25 nM.
Regarding `CCOC(=O)N1CCN(c2cc(-c3ncccc3C)c(Cl)cn2)CC1` [Example A-39, ethyl 4-(5′-chloro-3-methyl-2,4′-bipyridin-2′-yl)piperazine-1-carboxylate], on human Smo, the half-maximal inhibitory concentration (IC50) came out at 109 nM and the inhibition at 0.05 µM was 80.7%. Besides, it took 48.5 nM to reach half-maximal inhibition in the assay with Gli-Luc/MEF cells (IC50).
For the compound `Cc1cnc(-c2cc(N3CCC(NS(C)(=O)=O)CC3)ncc2Cl)c(C)c1` [Example A-14, N-[1-(5′-chloro-3,5-dimethyl-2,4′-bipyridin-2′-yl)piperidin-4-yl]methanesulfonamide], at human Smo, the half-inhibitory concentration (IC50) stood at 6.4 nM and the inhibition at 0.05 µM came out at 95%. In the assay with Gli-Luc/MEF cells, this compound had an IC50 of 16.4 nM.
For the compound `Cc1cccnc1-c1cc(N2CCC(NC(=O)CCS(C)(=O)=O)CC2)ncc1Cl` [Example A-95, N-[1-(5′-chloro-3-methyl-2,4′-bipyridin-2′-yl)piperidin-4-yl]-3-(methylsulfonyl)propanamide], the half-inhibitory concentration (IC50) was determined as 37 nM on human Smo and 32 nM in the assay with Gli-Luc/MEF cells. The inhibition at 0.05 µM on human Smo is 94%.
In the same order, the values of `Cc1cccnc1-c1cc(N2CCC(C(=O)NCC3(O)CCC3)CC2)ncc1Cl` [Example A-64, 1-(5′-chloro-3-methyl-2,4′-bipyridin-2′-yl)-N-[(1-hydroxycyclobutyl)methyl]piperidine-4-carboxamide] are 157 nM, 109 nM and 78.1%.
Consider `Cc1cc(C#N)cnc1-c1cc(N2CCC(NS(C)(=O)=O)CC2)ncc1Cl` [Example A-125, N-[1-(5′-chloro-5-cyano-3-methyl-2,4′-bipyridin-2′-yl)piperidin-4-yl]methanesulfonamide], for which, at human Smo, the IC50 came out at 95.6 nM and the inhibition at 0.05 µM is 82.3%. The IC50 in the assay on Gli-Luc/MEF cells amounted to 32.3 nM.
In the case of `CS(=O)(=O)NC1CCN(c2ncc(Cl)c(-c3ccccn3)n2)CC1` [Example A-45, N-[1-(5-chloro-4-pyridin-2-ylpyrimidin-2-yl)piperidin-4-yl]methanesulfonamide], at human Smo, the IC50 came out at 83.7 nM and the inhibition at 0.05 µM amounted to 80.1%. This compound also registered an IC50 in the assay on Gli-Luc/MEF cells of 58.2 nM.
In the case of `CS(=O)(=O)CCC(=O)NC1CCN(c2ccc(Cl)c(-c3ccccn3)n2)CC1` [Example A-128, N-[1-(3-chloro-2,2′-bipyridin-6-yl)piperidin-4-yl]-3-(methylsulfonyl)propanamide], on human Smo, the IC50 stood at 31.3 nM and the inhibition at 0.05 µM is 95%. Inhibition in the assay on Gli-Luc/MEF cells was half-maximal at 15.2 nM (IC50).
On to `Cc1cccnc1-c1cc(N2CCC(NCCS(C)(=O)=O)CC2)ncc1Cl` [Example A-49, 1-(5′-chloro-3-methyl-2,4′-bipyridin-2′-yl)-N-[2-(methylsulfonyl)ethyl]piperidin-4-amine], for which, at human Smo, the 50% inhibitory concentration (IC50) is 39 nM and the inhibition at 0.05 µM is 87%. In the assay with Gli-Luc/MEF cells, this compound showed an IC50 of 44 nM.
In the same order, the values of `Cc1cc(F)cnc1-c1nc(N2CCC(NS(C)(=O)=O)CC2)ccc1Cl` [Example A-154, N-[1-(3-chloro-5′-fluoro-3′-methyl-2,2′-bipyridin-6-yl)piperidin-4-yl]methanesulfonamide] are 29.2 nM, 94.3% and 39.5 nM.
As for `Cc1cc(F)cnc1-c1cc(N2CCC(NC(=O)CC(C)(C)O)CC2)ncc1Cl` [Example A-146, N-[1-(5′-chloro-5-fluoro-3-methyl-2,4′-bipyridin-2′-yl)piperidin-4-yl]-3-hydroxy-3-methylbutanamide], at human Smo, the IC50 was determined as 52.2 nM and the inhibition at 0.05 µM stood at 87.4%. It took 20.7 nM to reach half-maximal inhibition in the assay with Gli-Luc/MEF cells (IC50).
With `Cc1cnc(-c2cc(N3CCN(CCS(C)(=O)=O)CC3)ncc2Cl)c(C)c1` [Example A-112, 5′-chloro-3,5-dimethyl-2′-{4-[2-(methylsulfonyl)ethyl]piperazin-1-yl}-2,4′-bipyridine], the values for the IC50 on human Smo and in the assay on Gli-Luc/MEF cells were 124 nM and 25.3 nM, respectively. Moreover, the inhibition at 0.05 µM on human Smo worked out at 72.9%.
On to `COC(=O)NC1CCN(c2cc(-c3ncccc3C)c(Cl)cn2)CC1` [Example A-32, methyl [1-(5′-chloro-3-methyl-2,4′-bipyridin-2′-yl)piperidin-4-yl]carbamate], for which, on human Smo, the 50% inhibitory concentration (IC50) was found to be 77.9 nM and the inhibition at 0.05 µM was 86.6%. The IC50 with Gli-Luc/MEF cells was 27.4 nM.
As for `CS(=O)(=O)CCC(=O)N1CCN(c2ccc(Cl)c(-c3ccccn3)n2)CC1` [Example A-99, 3-chloro-6-{4-[3-(methylsulfonyl)propanoyl]piperazin-1-yl}-2,2′-bipyridine], on human Smo, the 50% inhibitory concentration (IC50) is 33.1 nM and the inhibition at 0.05 µM amounted to 94.4%. Also, in the assay on Gli-Luc/MEF cells, 23.9 nM corresponded to half-maximal inhibition (IC50).
With `Cc1ccc(-c2nc(N3CCC(NS(C)(=O)=O)CC3)ccc2Br)nc1` [Example A-120, N-[1-(3-bromo-5′-methyl-2,2′-bipyridin-6-yl)piperidin-4-yl]methanesulfonamide], on human Smo, the half-inhibitory concentration (IC50) was 40 nM and the inhibition at 0.05 µM amounted to 93%. In the assay with Gli-Luc/MEF cells, this compound showed a 50% inhibitory concentration (IC50) of 29 nM.
Regarding `Cc1cccnc1-c1cc(N2CCC(C(=O)Nc3cccc(CO)n3)CC2)ncc1Cl` [Example A-75, 1-(5′-chloro-3-methyl-2,4′-bipyridin-2′-yl)-N-[6-(hydroxymethyl)pyridin-2-yl]piperidine-4-carboxamide], the IC50 at human Smo came to 93.3 nM; with Gli-Luc/MEF cells it was 47.9 nM. Further, the inhibition at 0.05 µM at human Smo was 88.6%.
In the same order, the values of `Cc1cccnc1-c1cc(N2CCC(C(=O)NCCc3c[nH]cn3)CC2)ncc1Cl` [Example A-87, 1-(5′-chloro-3-methyl-2,4′-bipyridin-2′-yl)-N-[2-(1H-imidazol-4-yl)ethyl]piperidine-4-carboxamide] are 134 nM, 123 nM and 81.8%.
Take `Cc1cnc(-c2cc(N3CCN(S(=O)(=O)CCO)CC3)ncc2Cl)c(C)c1` [Example A-111, 2-{[4-(5′-chloro-3,5-dimethyl-2,4′-bipyridin-2′-yl)piperazin-1-yl]sulfonyl}ethanol]: on human Smo, the IC50 turned out to be 23.3 nM and the inhibition at 0.05 µM came out at 95%. This compound yielded a half-maximal inhibitory concentration (IC50) in the assay on Gli-Luc/MEF cells of 10.2 nM.
Regarding `Cc1cccnc1-c1cc(N2CCC(C(=O)N[C@@H]3CC[C@@H](O)C3)CC2)ncc1Cl` [Example A-66, 1-(5′-chloro-3-methyl-2,4′-bipyridin-2′-yl)-N-[(1R,3R)-3-hydroxycyclopentyl]piperidine-4-carboxamide], at human Smo, the IC50 amounted to 162 nM and the inhibition at 0.05 µM is 81.7%. Moreover, the IC50 with Gli-Luc/MEF cells was found to be 94 nM.
As for `COCCS(=O)(=O)N1CCN(c2cc(-c3ncc(C)cc3C)ccn2)CC1` [Example A-155, 2′-{4-[(2-methoxyethyl)sulfonyl]piperazin-1-yl}-3,5-dimethyl-2,4′-bipyridine], on human Smo, the IC50 came out at 97 nM and the inhibition at 0.05 µM came to 77.1%. In the assay on Gli-Luc/MEF cells, this compound displayed an IC50 of 45 nM.
In the same order, the values of `Cc1cccnc1-c1cc(N2CC(C(=O)N(C)[C@@H]3CS(=O)(=O)C[C@H]3O)C2)ncc1Cl` [Example A-69, 1-(5′-chloro-3-methyl-2,4′-bipyridin-2′-yl)-N-[(3S,4S)-4-hydroxy-1,1-dioxidotetrahydro-3-thienyl]-N-methylazetidine-3-carboxamide] are 189 nM, 74.4% and 148 nM.
Consider `Cc1cccnc1-c1nc(N2CCC(NS(C)(=O)=O)CC2)ccc1Cl` [Example A-16, N-[1-(3-chloro-3′-methyl-2,2′-bipyridin-6-yl)piperidin-4-yl]methanesulfonamide], for which the concentration for half-maximal inhibition (IC50) worked out at 20.6 nM on human Smo and 14.5 nM with Gli-Luc/MEF cells. Further, the inhibition at 0.05 µM at human Smo worked out at 97.8%.
As to `COc1cnc(NC(=O)C2CCN(c3cc(-c4ncccc4C)c(Cl)cn3)CC2)cn1` [Example A-59, 1-(5′-chloro-3-methyl-2,4′-bipyridin-2′-yl)-N-(5-methoxypyrazin-2-yl)piperidine-4-carboxamide], at human Smo, the IC50 was determined as 71.4 nM and the inhibition at 0.05 µM came out at 89.5%. In the assay with Gli-Luc/MEF cells, this compound registered an IC50 of 21.2 nM.
In the same order, the values of `Cc1cccnc1-c1cc(N2CCC(C(=O)NCCC3C(=O)Nc4ccccc43)CC2)ncc1Cl` (stereo not drawn) [Example A-61, 1-(5′-chloro-3-methyl-2,4′-bipyridin-2′-yl)-N-[2-(2-oxo-2,3-dihydro-1H-indol-3-yl)ethyl]piperidine-4-carboxamide] are 40.9 nM, 91.9% and 37.1 nM.
In the case of `Cc1cccnc1-c1cc(N2CCC(C(=O)N(C)[C@@H]3CS(=O)(=O)C[C@H]3O)CC2)ncc1Cl` [Example A-70, 1-(5′-chloro-3-methyl-2,4′-bipyridin-2′-yl)-N-[(3S,4S)-4-hydroxy-1,1-dioxidotetrahydro-3-thienyl]-N-methylpiperidine-4-carboxamide], the IC50 was 42.4 nM on human Smo and 27.3 nM in the assay on Gli-Luc/MEF cells. Also, the inhibition at 0.05 µM on human Smo was determined as 105%.
As for `Cc1cc(F)cnc1-c1cc(N2CCC(NC(=O)CN(C)C)CC2)ncc1Cl` [Example A-145, N-[1-(5′-chloro-5-fluoro-3-methyl-2,4′-bipyridin-2′-yl)piperidin-4-yl]-N^2,N^2-dimethylglycinamide], on human Smo, the IC50 is 66.2 nM and the inhibition at 0.05 µM amounted to 88.9%. The compound also had an IC50 in the assay on Gli-Luc/MEF cells of 11.3 nM.
